As a reminder, the Ki is the dissociation constant of the complex between target and ligand, obtained from inhibition or displacement. What is called melting point is the temperature of the solid-liquid transition.

This passage reports Ki and melting point results from US6380207B2, “Glucocortiocoid-selective antiinflammatory agents” (Abbott Laboratories, priority 1998, dated 2002).

The target in data set [1] is T1, human progesterone receptor-A [PRA] isoform (Homo sapiens, UniProt P06401).
T1 construct: purchased Ligand Pharmaceuticals (San Diego, Calif.); host or cells: insect SF21 cells (baculovirus)
T1 sequence (P06401 1-769 isoform P06401-2): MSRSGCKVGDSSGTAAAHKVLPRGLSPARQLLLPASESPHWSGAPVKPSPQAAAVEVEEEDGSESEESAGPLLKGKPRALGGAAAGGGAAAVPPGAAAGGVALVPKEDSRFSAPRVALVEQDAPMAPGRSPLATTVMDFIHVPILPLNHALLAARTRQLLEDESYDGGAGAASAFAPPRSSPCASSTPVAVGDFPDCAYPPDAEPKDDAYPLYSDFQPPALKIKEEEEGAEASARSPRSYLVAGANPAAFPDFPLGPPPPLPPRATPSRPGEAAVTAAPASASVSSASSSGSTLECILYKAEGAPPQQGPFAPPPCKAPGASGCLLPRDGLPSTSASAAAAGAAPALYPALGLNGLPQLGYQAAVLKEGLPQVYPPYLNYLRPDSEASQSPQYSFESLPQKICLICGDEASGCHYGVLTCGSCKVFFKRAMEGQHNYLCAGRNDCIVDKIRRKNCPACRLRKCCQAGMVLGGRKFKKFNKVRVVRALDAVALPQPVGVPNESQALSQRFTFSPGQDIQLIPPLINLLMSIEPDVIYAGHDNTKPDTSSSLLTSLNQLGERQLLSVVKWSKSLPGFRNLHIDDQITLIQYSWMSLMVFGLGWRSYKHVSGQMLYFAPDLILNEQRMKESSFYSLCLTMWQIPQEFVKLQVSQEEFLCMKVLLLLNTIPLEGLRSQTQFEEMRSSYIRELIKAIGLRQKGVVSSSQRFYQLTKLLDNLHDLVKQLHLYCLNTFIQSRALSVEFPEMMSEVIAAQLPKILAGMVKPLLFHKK
The data set is described as follows: Radioligand binding with human progesterone receptor cytosol ([3H]-progesterone). The note with it: [3H]Prog competition, 4° C. overnight, Cheng-Prusoff, read-out: Ki (nM) PR. From the text: (§1) The procedure described in Anal. Biochem. 1970, 37, 244-252, hereby incorporated by reference, was used. Briefly, cytosol preparations of human glucocorticoid receptor-α [GRX] isoform and human progesterone receptor-A [PRA] isoform were obtained from Ligand Pharmaceuticals (San Diego, Calif.). Both receptor cDNAs were cloned into baculovirus expression vectors and expressed in insect SF21 cells. [^3H]-dexamethasone (Dex, specific activity 82-86 Ci/mmole) and [^3H]-progesterone (Prog, specific activity 97-102 Ci/mmol) were purchased from Amersham Life Sciences (Arlington Heights, Ill.). Glass fiber type C multiscreen MAFC NOB plates were from Millipore (Burlington, Mass.). Hydroxyapatide Bio-Gel HTP gel was from Bio-Rad Laboratories (Hercules, Calif.). Tris(hydroxymethyl)aminomethane (Tris), ethylenediaminetetraacetic acid (EDTA), glycerol, dithiothreitol (DTT) and sodium moylybdate were obtained from Sigma Chemicals (St. Louis, Mo.). Microscint-20 scintillation fluid was from Packard Instrument (Meriden, Conn.).
(§2) Stock solutions (32 mM) of compounds were prepared in dimethylsulfoxide (DMSO), and 50× solutions of test compounds were prepared from the 32 mM solution with a 50:50 mixture of DMSO/ethanol. The 50× solution was then diluted with binding buffer that contained 10 mM Tri-HCl, 1.5 mM EDTA, 10% glycerol, 1 mM DTT, 20 mM sodium molybdate, pH 7.5 @ 4° C. 1% DMSO/ethanol was present in the binding assay.
For PR binding assays, [^3H]Prog (˜36,000 dpm (˜0.8 nM)), PRA cytosol (˜40 μg protein), test compounds and binding buffer were mixed in a total volume of 200 μL and incubated at 4° C. at overnight in a plate shaker. Specific binding was defined as the difference between binding of [^3H]Prog in the absence and in the presence of 3 μM unlabelled Prog.
(§3) After an overnight incubation, 50 μL of hydroxyapatite (25% weight/volume) slurry were added to each well and plates were incubated for 10 min at […] in a plate shaker. Plates were suctioned with a Millipore vacuum manifold and each well was rinsed with 300 μL of ice-cold binding buffer. A 250 μL aliquot of Packard Microscint-20 was added to each well and the wells were shaken at room temperature for 20 minutes. The amount of radioactivity was determined with a Packard TopCount plate reader.
(§4) The concentration of test compounds that inhibited 50% of specific binding (IC50) was determined from a Hill analysis of the competitive binding experiments. The Ki of test compounds was determined using the Cheng-Prusoff equation Ki=IC50/(1+[L*]/[KL]) where L* is the concentration of radioligand and KL is the dissociation constant of the radioligand determined from saturation analysis. For GRX, KL was ˜1.5 nM, and for PRA, KL was ˜4.5 nM.

In data set [2] the target is T2, human glucocorticoid receptor-α [GRX] isoform (Homo sapiens, UniProt P04150).
T2 construct: purchased Ligand Pharmaceuticals (San Diego, Calif.); host or cells: insect SF21 cells (baculovirus)
T2 sequence (P04150 1-777): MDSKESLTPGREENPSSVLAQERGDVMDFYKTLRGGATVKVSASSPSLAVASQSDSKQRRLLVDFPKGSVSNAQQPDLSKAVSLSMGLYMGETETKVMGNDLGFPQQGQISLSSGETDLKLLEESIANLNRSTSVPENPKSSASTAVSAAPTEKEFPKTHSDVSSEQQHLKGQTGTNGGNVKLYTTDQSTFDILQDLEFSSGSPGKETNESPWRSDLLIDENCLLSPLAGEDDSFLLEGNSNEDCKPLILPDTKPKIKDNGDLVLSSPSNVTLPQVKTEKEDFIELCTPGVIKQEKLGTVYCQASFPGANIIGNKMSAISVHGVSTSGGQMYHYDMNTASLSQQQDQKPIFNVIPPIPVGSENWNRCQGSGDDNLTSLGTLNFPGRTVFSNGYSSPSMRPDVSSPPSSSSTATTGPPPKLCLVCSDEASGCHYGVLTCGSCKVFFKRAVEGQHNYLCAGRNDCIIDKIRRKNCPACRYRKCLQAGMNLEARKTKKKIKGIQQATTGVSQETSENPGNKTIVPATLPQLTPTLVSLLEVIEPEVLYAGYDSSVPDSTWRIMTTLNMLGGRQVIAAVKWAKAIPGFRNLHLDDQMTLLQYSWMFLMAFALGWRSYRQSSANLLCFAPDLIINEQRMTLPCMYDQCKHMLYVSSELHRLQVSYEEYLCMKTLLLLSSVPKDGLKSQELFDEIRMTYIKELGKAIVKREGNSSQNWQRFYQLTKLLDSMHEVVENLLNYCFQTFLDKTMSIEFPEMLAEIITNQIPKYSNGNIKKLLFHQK
The data set is described as follows: Radioligand binding with human glucocorticoid receptor cytosol ([3H]-dexamethasone). The note with it: [3H]-Dex competition, 4° C. overnight, Cheng-Prusoff, read-out: Ki (nM) GR.
Text: as §1, §2
GRX and PRA binding reactions were performed in Millipore Multiscreen plates. For GR binding assays, [^3H]-Dex (˜35,000 dpm (˜0.9 nM)), GRX cytosol (˜35 μg protein), test compounds and binding buffer were mixed in a total volume of 200 μL and incubated at 4° C. overnight in a plate shaker. Specific binding was defined as the difference between binding of [^3H]Dex in the absence and in the presence of 1 μM unlabelled Dex.
as §3, §4

As for `COc1cc2c(c3c1-c1ccccc1OC3c1cc(Cl)cc(Cl)c1)C(C)=CC(C)(C)N2` (stereo not drawn) [Example 3, 2,5-dihydro-11-methoxy-5-(3,5-dichlorophenyl)-2,2,4-trimethyl-1H-[1]benzopyrano[3,4-f]quinoline], the results for the Ki in data set [1] and in data set [2] were 10000 nM and 200 nM, respectively.

For the compound `C=C1CC(C)(C)Nc2cc(OC)c3c(c21)C(c1cc(Cl)cc(Cl)c1)Oc1ccccc1-3` (stereo not drawn) [Example 4, 2,3,5-trihydro-11-methoxy-5-(3,5-dichlorophenyl)-2,2,4-dimethyl-4-methylene-1H-[1]benzopyrano[3,4-f]quinoline], the inhibition constant (Ki) was 8600 nM in data set [1] and 270 nM in data set [2].

Turning to `C=CCC1Oc2ccccc2-c2c(OC)cc3c(c21)C(C)=CC(C)(C)N3` (stereo not drawn) [Example 2, 2,5-dihydro-11-methoxy-5-(2-propenyl)-2,2,4-trimethyl-1H-[1]benzopyrano[3,4-f]quinoline], the melting point lay within 84 to 86 °C. In data set [1], the Ki worked out at 14000 nM. Moreover, the inhibition constant (Ki) in data set [2] stood at 640 nM.

For `COc1cc2c(c3c1-c1ccccc1OC3c1ccccc1)C(C)=CC(C)(C)N2` (stereo not drawn) [Example 1, 2,5-dihydro-11-methoxy-5-phenyl-2,2,4-trimethyl-1H-[1]benzopyrano[3,4-f]quinoline], the Ki was 10000 nM in data set [1] and 230 nM in data set [2].
